According to patent publication US20250235404A1, “PEG-LIPIDS AND LIPID NANOPARTICLES” (CAPSTAN THERAPEUTICS, INC., priority 2022, published 2025):

Experiments:
[1] = Physical-chemical properties of the LNP / tLNP: hydrodynamic diameter and PDI by dynamic light scattering; assay type: physicochemical; conditions: for PDI* (polydispersity index) / Hydrodynamic diameter (nm): LNP whose PEG-lipid is the labelled compound, mCherry mRNA, N/P 6; for PDI* (polydispersity index): 50:10:38.5:1.5 mol/mol; for Hydrodynamic diameter (nm): ionizable cationic lipid/DSPC/cholesterol/PEG-lipid 50:10:38.5:1.5 mol/mol, pH 7.4 Tris buffer, 25° C.; for formation of LNP encapsulating mRNA: PEG-lipid at 1.5 mol % in LNP with mCherry mRNA
Description: The ability to incorporate various of the disclosed PEG-lipids into LNP encapsulating mRNA was assessed using mRNA encoding the fluorescent marker mCherry.
(§1) The mRNA was encapsulated in LNP using a self-assembly process in which an aqueous solution of mRNA at pH=3.5 is rapidly mixed with a solution of lipids dissolved in ethanol, then followed by stepwise phosphate and Tris buffer dilution and tangential flow filtration (TFF) purification. LNP composition in this study was: an ionizable cationic lipid of Formula 1a as shown below/distearoylphosphatidylcholine/cholesterol/PEG-lipid (50:10:38.5:1.5 mol/mol) and were encapsulated at an N/P ratio (the ratio of positively-chargeable lipid amine (N=nitrogen) groups to negatively-charged nucleic acid phosphate (P) groups) at 6. LNPs were frozen at −80° C. LNP were made in which the PEG-lipid was DMG-PEG2000, as a benchmark, or one of Compounds VI-7, VI-8, B-46, or B-47. The diameter of the nanoparticles was measured by dynamic light scattering using a Zetasizer Nano ZS (Malvern Instruments Ltd., Malvern, UK) instrument. Size measurement was carried out in pH 7.4 Tris buffer at 25° C. in relevant disposable capillary cells. A non-invasive back scatter system (NIBS) with a scattering angle of 173° was used for size measurements.
CleanCap® mCherry 5-methoxyuridine (5moU) mRNA (L-7203) was purchased from TriLink. mRNA was encapsulated in LNP using a self-assembly process in which an aqueous solution of mRNA at pH=3.5 is rapidly mixed with a solution of lipids dissolved in ethanol, then followed by stepwise phosphate and Tris buffer dilution and TFF purification. LNP composition in this study was: an ionizable cationic lipid as shown in Example 42/distearoylphosphatidylcholine/cholesterol/DMG-PEG 2000/functionalized PEG-lipid (50:10:38.5:1.4:0.1 mol/mol) and were encapsulated at an N/P ratio (the ratio of positively-chargeable […] amine (N=nitrogen) groups to negatively-charged nucleic acid phosphate (P) groups) at 6. The hydrodynamic diameter of the nanoparticles was measured by dynamic light scattering using a Zetasizer Nano ZS (Malvern Instruments Ltd., Malvern, UK) instrument.
The particle size (hydrodynamic diameter) and polydispersity index of the targeted lipid nanoparticles were determined using dynamic light scattering (DLS) on a Malvern Zetasizer Nano ZS (Malvern Instruments, Worcestershire, UK). Size measurement was carried out in pH 7.4 Tris buffer at 25° C. in relevant disposable capillary cells. A non-invasive back scatter system (NIBS) with a scattering angle of 173° was used for size measurements.

[2] = Encapsulation efficiency of mRNA in LNP / tLNP (RiboGreen RNA assay); assay type: physicochemical; conditions: LNP whose PEG-lipid is the labelled compound; 50:10:38.5:1.5 mol/mol, mCherry mRNA, N/P 6
Excerpt: as §1
mRNA content was determined using a Quant-iT™ RiboGreen RNA assay kit (Invitrogen™). Encapsulation efficiency was calculated by determining the unencapsulated mRNA content by measuring the fluorescence intensity (Fi) upon the addition of RiboGreen reagent to the LNP and comparing this value to the total fluorescence intensity (Ft) of the RNA content that is obtained upon lysis of the LNPs by 1% Triton X-100, where % encapsulation=(Ft−Fi)/Ft×100).

HEK293F cells = assay: Transfection of HEK293F cells with mCherry mRNA encapsulated in LNP (flow cytometry, Aqua Live/Dead); assay type: cell-based, human; conditions: LNP comprising the labelled PEG-lipid; for expression level of mCherry (gMFI) compared with the benchmark LNP (DMG-PEG2000) / transfection at the lower doses: 24 hours; for expression level of mCherry (gMFI) compared with the benchmark LNP (DMG-PEG2000): FIG. 14C; for transfection at the lower doses: lower LNP doses
Description: The ability of the LNP formed in the preceding Example to transfect HEK293F cells, a human embryonic kidney cell-derived cell line, with the mCherry mRNA was assessed. Viral Production Cells (Gibco Catalog number: A35347), a derivative of the HEK 293F cell line adapted to a chemically-defined, serum-free and protein-free medium (LV-MAX™ Production Medium; Gibco Catalog number: A3583401) were grown in suspension, sedimented, resuspended at about 1×10^6 cells/mL, and 200 μL distributed to the wells of a 96-well U-bottom plate. Frozen LNP were thawed and diluted to 100 μg mRNA/mL with sterile water for injection. An appropriate volume of LNP was added to provide 0, 0.3, 0.6, or 2 μg RNA per well in duplicate and mixed by re-pipetting. The cells were then incubated for 1 hour at 37° C. in a CO2 incubator, washed three times with phosphate buffered saline, resuspended in 400 μL of medium in a deep-well 96-well plate, and incubated at 37° C. in a CO2 incubator on an orbital shaker at 900 RPM.
Twenty-four hours after addition of the LNP to the cells they were stained with Aqua Live/Dead (Thermo: catalog L34965) to assess cell viability. Transfection rate and expression level in the transfected cells was assessed by flow cytometry based on mCherry fluorescence.

| Compound | PDI* (polydispersity index) [1] | Hydrodynamic diameter (nm) [1] | Encapsulation Efficiency (%) [2] | formation of LNP encapsulating mRNA [1] | expression level of mCherry (gMFI) compared with the benchmark LNP (DMG-PEG2000) (HEK293F cells) | transfection of live cells (transfection rate) (HEK293F cells; highest LNP dose tested, 24 hours after addition, mCherry fluorescence, FIG. 14B) | transfection at the lower doses (HEK293F cells; FIG. 14B) |
| --- | --- | --- | --- | --- | --- | --- | --- |
| 1,2-dimyristoyl-glycero-3-methoxypolyethylene glycol-2000 [DMG-PEG2000, reference compound] | 0.03 | 82 nm | 96% |  |  |  |  |
| CCCCCCCCCCCCCCCCCC(=O)OCC(COC(=O)CCCCCCCCCCCCCCCCC)CC(=O)OCCOCCOCCOCCOCCOCCOCCOCCOCCOCCOCCOCCOCCOCCOCCOCCOCCOCCOCCOCCOCCOCCOCCOCCOCCOCCOCCOCCOCCOCCOCCOCCOCCOCCOCCOCCOCCOCCOCCOCCOCCOCCOCCOCCOCCOCc1ccc(OC)cc1 [Compound B-46] | 0.04 | 88 nm | 85% | formed LNP | substantially higher expression levels | ~90% | substantial levels of transfection |
| CCCCCCCC(CCCCCCC)CCC(=O)OCC(COC(=O)CCC(CCCCCCC)CCCCCCC)CC(=O)OCCOCCOCCOCCOCCOCCOCCOCCOCCOCCOCCOCCOCCOCCOCCOCCOCCOCCOCCOCCOCCOCCOCCOCCOCCOCCOCCOCCOCCOCCOCCOCCOCCOCCOCCOCCOCCOCCOCCOCCOCCOCCOCCOCCOCCOCc1ccc(OC)cc1 [Compound B-47] | 0.12 | 98 nm | 68% | formed LNP | performed comparably |  | minimal transfection |
